In US9233108B2 (ALMIRALL, S.A., priority 2011, dated 2016):

Tests used:
[1] = molecular target: human adrenergic beta2 receptors (Homo sapiens (Human), UniProt P07550); assay: Human adrenergic β2 receptor binding assay; settings: Sf9 cell membranes, 3H-CGP12177 radioligand
Experimental: Test 1: Human Adrenergic β1 and β2 Receptor Binding Assays
The study of binding to human adrenergic beta1 and beta2 receptors was performed using commercial membranes prepared from Sf9 cells where they are overexpressed (Perkin Elmer). The membrane suspensions (16 μg/well for beta1 and 5 μg/well for beta2) in assay buffer (75 mM Tris/HCl with 12.5 mM MgCl2 and 2 mM EDTA pH=7.4) were incubated with 0.14 or 0.6 nM of 3H-CGP12177 (Amersham) for beta 1 and beta 2 receptors respectively in a final volume of 250 μl, in GFC Multiscreen 96 well plates (Millipore) previously treated with assay buffer containing 0.3% PEI (Sigma). Non specific binding was measured in the presence of 1 μM propanolol. Incubation was maintained for 60 minutes at room temperature and with gentle shaking. The binding reactions were terminated by filtration and washing with 2.5 volumes of Tris/HCl 50 mM pH=7.4. The affinity of each test compound to the receptor was determined by using ten different concentrations ran in duplicate. IC50s were calculated using Activity Base software from IDBS and the four parameters-log equation.

[2] = molecular target: human muscarinic M3 receptors (Homo sapiens (Human), UniProt P20309); assay: Human muscarinic M3 receptor binding assay; settings: CHO-K1 cell membranes, [3H]-NMS radioligand
Chain of human muscarinic M3 receptors (P20309 whole entry): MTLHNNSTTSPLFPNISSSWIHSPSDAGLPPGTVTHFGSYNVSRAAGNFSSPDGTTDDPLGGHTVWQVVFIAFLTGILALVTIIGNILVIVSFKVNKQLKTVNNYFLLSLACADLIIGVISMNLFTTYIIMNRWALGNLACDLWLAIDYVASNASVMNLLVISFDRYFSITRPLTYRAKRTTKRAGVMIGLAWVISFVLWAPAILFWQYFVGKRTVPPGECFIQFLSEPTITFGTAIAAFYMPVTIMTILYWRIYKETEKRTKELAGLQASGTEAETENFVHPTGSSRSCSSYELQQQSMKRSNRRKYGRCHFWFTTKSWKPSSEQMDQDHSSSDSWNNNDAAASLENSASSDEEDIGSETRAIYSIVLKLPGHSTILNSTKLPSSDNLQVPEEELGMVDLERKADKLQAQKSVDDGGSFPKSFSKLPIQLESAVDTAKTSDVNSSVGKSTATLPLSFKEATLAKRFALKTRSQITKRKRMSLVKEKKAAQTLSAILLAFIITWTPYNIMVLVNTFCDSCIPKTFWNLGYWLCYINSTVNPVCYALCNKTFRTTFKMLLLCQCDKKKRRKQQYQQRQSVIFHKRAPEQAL
Experimental: Test 2: Human Muscarinic M1, M2, M3, M4 and M5 receptors binding assays
The study of binding to human muscarinic M1, M2, M3, M4 and M5 receptors was performed using commercial membranes (Perkin Elmer) prepared from CHO-K1 cells. Radioligand binding experiments were conducted in 96 polypropylene well plates in a total volume of 200 μl. All reagents were dissolved in assay binding buffer (PBS with calcium and magnesium, SIGMA), except compounds that were dissolved in DMSO 100%. Non-specific binding (NSB) was measured in the presence of 1 μM atropine. [3H]-NMS was used as the radioligand at a concentration of 1 nM for M2, M3 and M5 and 0.3 nM for M1 and M4. [3H]-NMS and antagonists were incubated with membranes that express human muscarinic receptors M1, M2, M3, M4 and M5 at concentrations of 8.1, 10, 4.9, 4.5 and 4.9 μg/well, respectively.
After an incubation period of two hours with gentle shaking, 150 μl of the reaction mix were transferred to 96 GF/C filter plates (Millipore), previously treated with wash buffer (Tris 50 mM; NaCl 100 mM; pH: 7.4), containing 0.05% PEI (Sigma) during one hour. Bound and free [3H]-NMS were separated by rapid vacuum filtration in a manifold from Millipore and washed four times with ice cold wash buffer. After drying 30 min, 30 μl of OPTIPHASE Supermix were added to each well and radioactivity quantified using a Microbeta microplate scintillation counter.
The affinity of each test compound to the receptors was determined by using ten different concentrations ran in duplicate. IC50s were calculated using Activity Base software from IDBS and the four parameters-log equation.

| Compound | IC50 [1] [nM] | IC50 [2] [nM] |
| --- | --- | --- |
| CN(CCCn1c(=O)oc2cc(CCNC[C@H](O)c3ccc(O)c4[nH]c(=O)ccc34)ccc21)[C@H]1CC[C@H](OC(=O)C(O)(c2cccs2)c2cccs2)CC1 (relative stereo) [Example 19, trans-4-[{3-[6-(2-{[(2R)-2-hydroxy-2-(8-hydroxy-2-oxo-1,2-dihydroquinolin-5-yl)ethyl]amino}ethyl)-2-oxo-1,3-benzoxazol-3(2H)-yl]propyl}(methyl)amino]cyclohexylhydroxy(di-2-thienyl)acetate dihydrofluoride] | 62 | 0.8 |
| CC(Cc1ccc(OCC(=O)NCCN[C@H]2CC[C@H](OC(=O)C(O)(c3cccs3)c3cccs3)CC2)cc1)NC[C@H](O)c1ccc(O)c2[nH]c(=O)ccc12 (relative stereo) [Example 20] | 3.1 | 3.6 |
| trans-4-[(3-{3-[4-({[(2R)-2-hydroxy-2-(8-hydroxy-2-oxo-1,2-dihydroquinolin-5-yl)ethyl]amino}methyl)phenyl]-1,2,4-oxadiazol-5-yl}propyl)(methyl)amino]cyclohexylhydroxy(di-2-thienyl)acetate dihydrofluoride [Example 5] | 2.7 | 0.4 |
| trans-4-[{3-[6-({[(2R)-2-hydroxy-2-(8-hydroxy-2-oxo-1,2-dihydroquinolin-5-yl)ethyl]amino}methyl)-2-oxo-1,3-benzothiazol-3(2H)-yl]propyl}(methyl)amino]cyclohexylhydroxy(di-2-thienyl)acetate dihydrofluoride [Example 11] | 4.2 | 0.5 |
| trans-4-[{3-[5-({[(2R)-2-hydroxy-2-(8-hydroxy-2-oxo-1,2-dihydroquinolin-5-yl)ethyl]amino}methyl)-2-oxo-2,3-dihydro-1H-benzimidazol-1-yl]propyl}(methyl)amino]cyclohexylhydroxy(di-2-thienyl)acetate dihydrofluoride [Example 2] | 120 | 0.4 |
| COc1cc(-c2noc(CCCN(C)[C@H]3CC[C@H](OC(=O)C(O)(c4cccs4)c4cccs4)CC3)n2)c(Cl)cc1CNC[C@H](O)c1ccc(O)c2[nH]c(=O)ccc12 (relative stereo) [Example 9, trans-4-[(3-{3-[2-chloro-4-({[(2R)-2-hydroxy-2-(8-hydroxy-2-oxo-1,2-dihydroquinolin-5-yl)ethyl]amino}methyl)-5-methoxyphenyl]-1,2,4-oxadiazol-5-yl}propyl)(methyl)amino]cyclohexylhydroxy(di-2-thienyl)acetate dihydrofluoride] | 2.2 | 0.2 |
